Experiments:
Serine protease 1 [1] = target: T1, Serine protease 1 (Homo sapiens, UniProt P07477); assay: Compound was tested for inhibition of trypsin
Serine protease 1 [2] = target: T1, Serine protease 1; assay: Compound was tested for inhibition of trypsin.
Prothrombin = Prothrombin (Homo sapiens, UniProt P00734); assay: Compound was tested for inhibition of thrombin.; parameters: species or system Oryctolagus cuniculus
Coagulation factor X = Coagulation factor X (Homo sapiens, UniProt P00742); assay: Compound was tested for inhibition of blood coagulation factor X
Coagulation factor X, sequence (P00742 41-179 limits assumed): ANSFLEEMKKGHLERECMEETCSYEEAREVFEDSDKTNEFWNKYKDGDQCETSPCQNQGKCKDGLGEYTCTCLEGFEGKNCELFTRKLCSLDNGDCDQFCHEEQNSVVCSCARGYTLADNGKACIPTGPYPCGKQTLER
Coagulation factor X, sequence (P00742 235-488 limits assumed): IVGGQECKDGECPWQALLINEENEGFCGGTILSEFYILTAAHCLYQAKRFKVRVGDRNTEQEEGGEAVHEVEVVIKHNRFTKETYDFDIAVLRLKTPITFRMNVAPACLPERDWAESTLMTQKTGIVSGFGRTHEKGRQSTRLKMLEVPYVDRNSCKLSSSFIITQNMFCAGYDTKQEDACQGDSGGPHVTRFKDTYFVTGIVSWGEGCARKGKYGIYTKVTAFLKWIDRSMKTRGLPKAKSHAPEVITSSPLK

T1 sequence (P07477 whole entry): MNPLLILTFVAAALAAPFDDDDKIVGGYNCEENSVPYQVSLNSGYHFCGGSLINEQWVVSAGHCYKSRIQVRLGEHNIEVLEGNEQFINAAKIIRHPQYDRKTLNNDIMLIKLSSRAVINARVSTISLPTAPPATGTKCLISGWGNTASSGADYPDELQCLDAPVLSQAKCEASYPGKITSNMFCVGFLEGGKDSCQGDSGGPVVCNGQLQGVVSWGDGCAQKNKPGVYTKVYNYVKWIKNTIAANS

| Ki (Serine protease 1 [1]) [nM] | Ki (Serine protease 1 [2]) [nM] | Ki (Prothrombin) [nM] | Ki (Coagulation factor X) [nM] | SMILES |
| --- | --- | --- | --- | --- |
| 1100 | – | – | – | CC(=N)N1CC[C@H](Oc2ccc(C(Cc3ccc4ccc(C(=N)N)cc4c3)C(=O)O)cc2)C1 (some centres undefined) |
| – | > 1200 | > 21000 | 4900 | N=C(N)c1cccc(NC(=O)NC2CCN(Cc3ccccc3)CC2)c1 |
| – | – | > 21000 | 2500 | N=C(N)c1cccc(N2CCCCN(C3CCN(C(=N)N)CC3)C2=O)c1 |
| – | – | 7300 | 400 | N=C(N)c1cccc(N2CCCN(C3CCN(Cc4ccccc4)CC3)C2=O)c1 |
| – | – | 11000 | 2100 | N=C(N)c1cccc(N2CCN(C3CCN(Cc4ccccc4)CC3)C2=O)c1 |
| – | 282 | 2000 | 102 | N=C(N)c1cccc(N2CCCCN(C3CCN(Cc4ccccc4)CC3)C2=O)c1 |
| – | 120 | 9300 | 800 | N=C(N)c1ccc(N2CCCCN(c3cccc(C(=N)N)c3)C2=O)cc1 |
| – | > 1600 | > 21000 | 7500 | N=C(N)c1ccc(N2CCCCN(C3CCN(Cc4ccccc4)CC3)C2=O)cc1 |

From ChEMBL document CHEMBL1131265, “The de novo design and synthesis of cyclic urea inhibitors of factor Xa: initial SAR studies” (Bioorg Med Chem Lett, 1998)
